According to PubChem BioAssay AID2060626 (Molecular Pharmacology Branch, DTP, NCI, 2025):

System: 168753-222-R-J1-PDC complex spheroid viability
Assay: Anticancer human tumor 168753-222-R-J1-PDC patient-derived bladder carcinoma cell line growth inhibition [CLK]
Details: for IC50: curve of first compound; for viability, T/C: stronger effect = lower value
Method in brief: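 Multi-cell-type spheroids combined patient-derived tumor cells with HUVEC endothelial cells and human mesenchymal stem cells. Paired agents were dosed in half-log steps down from about clinical Cmax, or from 10 microM where Cmax was unknown.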
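Also: viability measured after seven days of drug exposure.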
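For viability, T/C in this document: luminescence signal used as surrogate for viable cell amount; 100% = DMSO vehicle control wells.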

## C#Cc1c(F)ccc2cc(O)cc(-c3ncc4c(N5CC6CCC(C5)N6)nc(OCC56CCCN5CC(F)C6)nc4c3F)c12 (centres undefined) + CNC(=O)c1ccc(Nc2nc(OC3CCCC3)c3c(-c4ccc5nc(C)oc5c4)c[nH]c3n2)c(OC)c1
Second compound 0.0316 µM
  IC50: > 10000 nM
Second compound 0.1 µM
  IC50: > 10000 nM
Second compound 0.316 µM
  IC50: 5140 nM
Second compound 1 µM
  IC50: < 31.6 nM
Second compound 3.16 µM
  IC50: < 31.6 nM
Second compound 10 µM
  IC50: < 31.6 nM
Second compound 0.0316 µM, first compound 0.0316 µM
  viability, T/C: 106%
Second compound 0.0316 µM, first compound 0.1 µM
  viability, T/C: 99.4%
Second compound 0.0316 µM, first compound 0.316 µM
  viability, T/C: 107%
Second compound 0.0316 µM, first compound 1 µM
  viability, T/C: 99.2%
Second compound 0.0316 µM, first compound 3.16 µM
  viability, T/C: 105%
Second compound 0.0316 µM, first compound 10 µM
  viability, T/C: 73.1%
Second compound 0.1 µM, first compound 0.0316 µM
  viability, T/C: 99.1%
Second compound 0.1 µM, first compound 0.1 µM
  viability, T/C: 103%
Second compound 0.1 µM, first compound 0.316 µM
  viability, T/C: 101%
Second compound 0.1 µM, first compound 1 µM
  viability, T/C: 101%
Second compound 0.1 µM, first compound 3.16 µM
  viability, T/C: 90.1%
Second compound 0.1 µM, first compound 10 µM
  viability, T/C: 73%
Second compound 0.316 µM, first compound 0.0316 µM
  viability, T/C: 86%
Second compound 0.316 µM, first compound 0.1 µM
  viability, T/C: 74.3%
Second compound 0.316 µM, first compound 0.316 µM
  viability, T/C: 78.5%
Second compound 0.316 µM, first compound 1 µM
  viability, T/C: 78.2%
Second compound 0.316 µM, first compound 3.16 µM
  viability, T/C: 67.9%
Second compound 0.316 µM, first compound 10 µM
  viability, T/C: 25.6%
Second compound 1 µM, first compound 0.0316 µM
  viability, T/C: 42.3%
Second compound 1 µM, first compound 0.1 µM
  viability, T/C: 39.9%
Second compound 1 µM, first compound 0.316 µM
  viability, T/C: 36.7%
Second compound 1 µM, first compound 1 µM
  viability, T/C: 22.7%
Second compound 1 µM, first compound 3.16 µM
  viability, T/C: 30.4%
Second compound 1 µM, first compound 10 µM
  viability, T/C: 16.9%
Second compound 3.16 µM, first compound 0.0316 µM
  viability, T/C: 28.7%
Second compound 3.16 µM, first compound 0.1 µM
  viability, T/C: 21.7%
Second compound 3.16 µM, first compound 0.316 µM
  viability, T/C: 20%
Second compound 3.16 µM, first compound 1 µM
  viability, T/C: 17.7%
Second compound 3.16 µM, first compound 3.16 µM
  viability, T/C: 18.4%
Second compound 3.16 µM, first compound 10 µM
  viability, T/C: 16.2%
Second compound 10 µM, first compound 0.0316 µM
  viability, T/C: 17.1%
Second compound 10 µM, first compound 0.1 µM
  viability, T/C: 21.5%
Second compound 10 µM, first compound 0.316 µM
  viability, T/C: 18.6%
Second compound 10 µM, first compound 1 µM
  viability, T/C: 14.8%
Second compound 10 µM, first compound 3.16 µM
  viability, T/C: 11.7%
Second compound 10 µM, first compound 10 µM
  viability, T/C: 11.3%

## NC(=O)C(=Cn1cnc(-c2cc(C(F)(F)F)cc(C(F)(F)F)c2)n1)c1cncnc1 + CN1CCN(c2cc(C(=O)Nc3cc4cc(-c5cnn(C)c5)ccc4cn3)ccn2)CC1
Second compound 0.0316 µM
  IC50: 56.2 nM
Second compound 0.1 µM
  IC50: 13.6 nM
Second compound 0.316 µM
  IC50: < 9.49 nM
Second compound 1 µM
  IC50: < 9.49 nM
Second compound 3.16 µM
  IC50: < 9.49 nM
Second compound 10 µM
  IC50: < 9.49 nM
Second compound 0.0316 µM, first compound 0.00949 µM
  viability, T/C: 75.6%
Second compound 0.0316 µM, first compound 0.03 µM
  viability, T/C: 72.3%
Second compound 0.0316 µM, first compound 0.0949 µM
  viability, T/C: 31.5%
Second compound 0.0316 µM, first compound 0.3 µM
  viability, T/C: 22.6%
Second compound 0.0316 µM, first compound 0.949 µM
  viability, T/C: 15%
Second compound 0.0316 µM, first compound 3 µM
  viability, T/C: 12.9%
Second compound 0.1 µM, first compound 0.00949 µM
  viability, T/C: 61.4%
Second compound 0.1 µM, first compound 0.03 µM
  viability, T/C: 25.2%
Second compound 0.1 µM, first compound 0.0949 µM
  viability, T/C: 10.8%
Second compound 0.1 µM, first compound 0.3 µM
  viability, T/C: 10.9%
Second compound 0.1 µM, first compound 0.949 µM
  viability, T/C: 5.67%
Second compound 0.1 µM, first compound 3 µM
  viability, T/C: 3.14%
Second compound 0.316 µM, first compound 0.00949 µM
  viability, T/C: 6.93%
Second compound 0.316 µM, first compound 0.03 µM
  viability, T/C: 4.81%
Second compound 0.316 µM, first compound 0.0949 µM
  viability, T/C: 0.76%
Second compound 0.316 µM, first compound 0.3 µM
  viability, T/C: 0.08%
Second compound 0.316 µM, first compound 0.949 µM
  viability, T/C: 0.11%
Second compound 0.316 µM, first compound 3 µM
  viability, T/C: 0.75%
Second compound 1 µM, first compound 0.00949 µM
  viability, T/C: 0.09%
Second compound 1 µM, first compound 0.03 µM
  viability, T/C: 0.15%
Second compound 1 µM, first compound 0.0949 µM
  viability, T/C: 0.1%
Second compound 1 µM, first compound 0.3 µM
  viability, T/C: 0.05%
Second compound 1 µM, first compound 0.949 µM
  viability, T/C: 0.06%
Second compound 1 µM, first compound 3 µM
  viability, T/C: 0.72%
Second compound 3.16 µM, first compound 0.00949 µM
  viability, T/C: 0.06%
Second compound 3.16 µM, first compound 0.03 µM
  viability, T/C: 0.22%
Second compound 3.16 µM, first compound 0.0949 µM
  viability, T/C: 0.75%
Second compound 3.16 µM, first compound 0.3 µM
  viability, T/C: 0.08%
Second compound 3.16 µM, first compound 0.949 µM
  viability, T/C: 0.69%
Second compound 3.16 µM, first compound 3 µM
  viability, T/C: 0.12%
Second compound 10 µM, first compound 0.00949 µM
  viability, T/C: 0.87%
Second compound 10 µM, first compound 0.03 µM
  viability, T/C: 0.14%
Second compound 10 µM, first compound 0.0949 µM
  viability, T/C: 0.3%
Second compound 10 µM, first compound 0.3 µM
  viability, T/C: 0.13%
Second compound 10 µM, first compound 0.949 µM
  viability, T/C: 0.22%
Second compound 10 µM, first compound 3 µM
  viability, T/C: 0.56%
